The subject of assay [1] is rabbit intact gastric glands (dibutyryl cAMP stimulated). Description: Aminopyrine (AP) accumulation in intact gastric glands. It is filed as cell-based, New Zealand white rabbits. The note with it: Oryctolagus cuniculus, 0.5 h; 300 μM dibutyryl cAMP, 30 minutes at 37° C, pH 7.4; amount required to inhibit stimulated aminopyrine accumulation by 50%. As to the method:
B. Aminopyrine (AP) accumulation in intact gastric glands
The effect of a single concentration (100 μm) of a compound of structure (I) on dibutyryl cAMP stimulated AP […] in rabbit intact gastric glands was determined. Preferred compounds of structure (I) were tested over a range of concentrations to determine the IC50 value.
(i) Preparation of intact gastric glands.
Intact gastric glands were prepared from New Zealand white rabbits by the method of Berghindh et al. (Acta. Physio. Scand. 96, 150, 1976). Gastric mucosal scrapings were digested at 37° C. for 45-60 min. with Collagenase (100 U, Type 1, Sigma), and glands harvested by coarse filtration and sedimentation.
Test compound was incubated with glands and 300 μM dibutyryl cAMP for 30 minutes at 37° C. Incubating medium contained 132.5 mM NaCl, 5.4 mM KCl, 1.0 mM NaH2 PO4, 5.0 mM Na2 HPO4, 1.2 mM MgSO4, 1.0 mM CaCl2, 11.1 mM glucose, 2.0 mg/ml rabbit albumin, 10 μg/ml phenol red, approximately 0.3 uM[^14 C] […] (110 mCi/mmole), pH 7.4.
After incubation, glands were centrifuged and the supernatant removed. The glands were dried, weighed and dissolved in NaOH. The distribution of radioactivity between the supernatant and glands is then used to calculate the AP ratio after the method of Berglindh et al. (Acta. Physiol. Scand. 97, 401, 1976).
The IC50 value is the amount of compound required to inhibit the stimulated accumulation of aminopyrine by 50%.

Assay [2] has as its system histamine stimulated gastric acid secretion. The experiment in a line: Rat: Lumen perfused stomach (histamine stimulated gastric acid secretion). It is filed as in vivo. An excerpt: C. Rat: Lumen perfused stomach (histamine stimulated gastric acid secretion).
Using a modification of the procedure described by Ghosh and Schild (Br. J. Pharmacology, 13, 54, 1958), ED50 values after either intraduodenal (i.d) or intravenous (i.v) administration were obtained as follows: […]

The next assay has as its system H^+ -K^+ -ATPase. The experiment in a line: K^+ Stimulated ATPase Activity. It is filed as biochemical, pig. The procedure:
A. K^+ Stimulated ATPase Activity
The effects of a single high concentration (1 mM) of a compound of structure (I) on H^+ -K^+ -ATPase were determined at pH 6.1 and pH 7.4. Preferred compounds of structure (I) were also tested over a range of concentrations to determine IC50 values at pH 6.1 and 7.4.
(i) Preparation of Lyophilised Gastric Vesicles (H^+ -K^+ -ATPase)
H^+ -K^+ -ATPase was prepared from the lyophilised gastric vesicles of pig fundic mucosa after the method of Saccomani et. al. (Biochem and Biophys. Acta., 465, 311, 1977).
(ii) K^+ Stimulated ATPase Activity
Compounds of structure (I) were pre-incubated with H^+ -K^+ -ATPase preparation 30 μg protein/ml from (i) in 10 mM Pipes/Tris buffer pH 6.1 and pH 7.4.
After 30 minutes at 37° the pre-incubation was diluted 5-fold with assay buffer to start the ATPase reaction. The conditions in the assay are 100 mM Pipes/Tris, 2 mM MgCl2, 10 mM KCl, 5 μg/ml nigericin, 2 mM Na2 ATP, pH 7.0. After an incubation at 37° for 15 minutes the inorganic phosphate released was determined by the method of Yoda & Hokin (Biochem. Biophys. Res. Com. 40, 880, 1970).
The effect of the same concentration of compound of structure (I) (pre-incubated with H^+ -K^+ -ATPase preparation at pH 7.4 as described above) on the recovery of 100 nmole of inorganic phosphate was also determined. […]

The mark [3] stands for this setting: i.d. (intraduodenal) administration.

Where a name gives a salt, the structure may show the parent alone.

8 compounds from patent US4777172A, “Pyrimidylalkylthio benzimidale compounds, pharmaceutical compositions and use” (Smith Kline & French Laboratories Limited, priority 1986, dated 1988) can be followed below.

For the compound `COc1ccc2[nH]c([S+]([O-])Cc3nccc(N(C)C)n3)nc2c1` (stereo not shown) [Example 9, 5-methoxy-2-(4-dimethylamino-2-pyrimidinylmethylsulphinyl)-(1H)-benzimidazole], 1.2 µM corresponded to half-maximal inhibition in assay [1] (IC50). The same compound displayed an ED50 in assay [2] (setting [3]) of 2.4 µmol/kg.
In turn, `COc1ccc2[nH]c([S+]([O-])Cc3nccc(N4CCCC4)n3)nc2c1` (stereo not shown) [Example 7, 5-methoxy-2-(4-pyrrolidino-2-pyrimidinylmethylsulphinyl)-(1H)-benzimidazole] showed an IC50 in assay [1] of 2.44 µM.
On the same count and under the same terms, next, `COc1ccc2[nH]c([S+]([O-])Cc3ncnc(N4CCOCC4)c3C)nc2c1` (stereo not shown) [Example 15, 5-methoxy-2-(5-methyl-6-morpholino-4-pyrimidinylmethylsulphinyl)-(1H)-benzimidazole]: 5 µM.
Compound `COc1ccc2[nH]c([S+]([O-])Cc3ncnc(N(C)C)c3C)nc2c1` (stereo not shown) [Example 17, 5-methoxy-2-(5-methyl-6-dimethylamino-4-pyrimidinylmethylsulphinyl)-(1H)-benzimidazole] gave an IC50 in assay [1] of 3.33 µM.
In the case of `COc1ccc2[nH]c([S+]([O-])Cc3nccc(N4CCCCC4)n3)nc2c1` (stereo not shown) [Example 3, 5-methoxy-2-(4-piperidino-2-pyrimidinylmethylsulphinyl)-(1H)-benzimidazoleCalcium Salt 2.5H2 O], the “inhibition of potassium stimulated H^+ -K^+ ATPase” value in the assay on H^+ -K^+ -ATPase (pre-incubation pH 6.1, 30 minutes at 37°) is on record as “found to inhibit”; with H^+ -K^+ -ATPase (pre-incubation pH 7.4, 30 minutes at 37°), “found to inhibit”. Moreover, the IC50 in assay [1] came out at 16 µM. The ED50 in assay [2] (iv, i.v. administration) turned out to be 1.4 µmol/kg.
The compound `COc1ccc2[nH]c([S+]([O-])Cc3ncnc(N4CCCCC4)c3C)nc2c1` (stereo not shown) [Example 11, 5-methoxy-2-(5-methyl-6-piperidino-4-pyrimidinylmethylsulphinyl)-(1H)-benzimidazole] yielded an IC50 in assay [1] of 6.15 µM. In other words, the single-digit micromolar range.
In assay [1], `COc1ccc2[nH]c([S+]([O-])Cc3cc(N4CCCCC4)ncn3)nc2c1` (stereo not shown) [Example 19, 5-methoxy-2-(6-piperidino-4-pyrimidinylmethylsulphinyl)-(1H)-benzimidazole] returned an IC50 of 2.64 µM.
In turn, `COc1ccc2[nH]c([S+]([O-])Cc3ncnc(N4CCCC4)c3C)nc2c1` (stereo not shown) [Example 13, 5-methoxy-2-(5-methyl-6-pyrrolidino-4-pyrimidinylmethylsulphinyl)-(1H)-benzimidazole] registered an IC50 in assay [1] of 0.32 µM. The compound further displayed an ED50 in assay [2] (setting [3]) of 2.8 µmol/kg.

For orientation: IC50 means the midpoint of a concentration-inhibition curve. Low readings indicate higher potency, high ones lower potency. The term ED50 denotes the midpoint of the dose-response relation. The low end stands for greater potency, the high end for weaker potency.
